Data: the supplement of paper PMC10307832

Columns and labels:
Test in all cases: relative viability (nuclei count vs DMSO), 5 days (fraction); higher = more cells survive
[1] = compound: C1=CC(=CC=C1NC(=S)NNC2=C(C=C(C=C2[N+](=O)[O-])C(F)(F)F)[N+](=O)[O-])F [Kobe2602] + COc1cccc2cc(-c3nc([C@H]4CC[C@H](C(=O)O)CC4)n4ncnc(N)c34)[nH]c12 [OSI-027] (partner 0.5 µM)
Procedure, shortened: (§1)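 Values are medians from duplicate plates. Each reflects relative viability, defined as the nuclei count of treated wells over that of vehicle wells. Lung cancer cell lines in 1536-well plates were pin-tool dosed one day after seeding with one drug alone or with a fixed anchor-drug dose plus five library-drug doses (not always all listed) in √10 steps, then fixed, stained and imaged at 4× after 5 days.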

[2] = compound: COc1cc2nccc(Oc3ccc(NC(=O)C4(C(=O)Nc5ccc(F)cc5)CC4)cc3)c2cc1OC [Cabozantinib] + CS(=O)(=O)N1CCN(Cc2cc3nc(-c4cccc5[nH]ncc45)nc(N4CCOCC4)c3s2)CC1 [Pictilisib] (partner 1 µM)
Procedure, shortened: as §1

[3] = compound: C1=CC(=CC=C1NC(=S)NNC2=C(C=C(C=C2[N+](=O)[O-])C(F)(F)F)[N+](=O)[O-])F [Kobe2602] + Nc1nc2[nH]cc(CCc3ccc(C(=O)N[C@@H](CCC(=O)O)C(=O)O)cc3)c2c(=O)[nH]1 [Pemetrexed] (partner 0.2 µM)
Procedure, shortened: as §1

[4] = compound: C1=CC(=CC=C1NC(=S)NNC2=C(C=C(C=C2[N+](=O)[O-])C(F)(F)F)[N+](=O)[O-])F [Kobe2602] + O=C(CCCCCCC(=O)Nc1ccccc1)NO [Vorinostat] (partner 1 µM)
Procedure, shortened: as §1

Cell Line	relative viability ([1]; first compound 0.2 µM)	relative viability ([1]; first compound 0.6325 µM)	relative viability ([1]; first compound 2 µM)	relative viability ([1]; first compound 6.325 µM)	relative viability ([1]; first compound 20 µM)	relative viability ([2]; first compound 0.02 µM)	relative viability ([2]; first compound 0.06325 µM)	relative viability ([2]; first compound 0.2 µM)	relative viability ([2]; first compound 0.6325 µM)	relative viability ([2]; first compound 2 µM)	relative viability ([3]; first compound 0.2 µM)	relative viability ([3]; first compound 0.6325 µM)	relative viability ([3]; first compound 2 µM)	relative viability ([3]; first compound 6.325 µM)	relative viability ([3]; first compound 20 µM)	relative viability ([4]; first compound 0.2 µM)	relative viability ([4]; first compound 0.6325 µM)	relative viability ([4]; first compound 2 µM)	relative viability ([4]; first compound 6.325 µM)	relative viability ([4]; first compound 20 µM)
NCI-H2347	0.425	0.495	0.403	0.278	0.571	0.893	0.726	0.897	0.497	0.592	0.432	0.467	0.427	0.443	0.431	0.523	0.696	0.732	0.661	0.705
NCI-H2405	0.609	0.616	0.619	0.727	0.719		0.496	0.602	0.422	0.439	1.07	1.21	0.888	1.1	1.08	1.05	1.34	0.998	1.04	1.02
NCI-H3122	0.902	0.903	0.957	0.853	1.12	0.512	0.622	0.579	0.77	0.769	0.189	0.191	0.198	0.187	0.208	0.986	0.701	0.979	0.855	1.06
PC-3 [JPC-3]	0.715	0.736	0.74	0.784	0.759	0.723	0.926		0.806	0.774	1.26	1.33	1.11	1.11	1.06	0.943	1.1	0.787	0.874	0.771
PC-14	0.836	0.887	0.87	0.792	0.339	0.722	0.761		0.76	0.689	0.15	0.137	0.134	0.15	0.14	0.637	0.788	0.739	0.75	0.413
RERF-LC-KJ	0.615	0.485	0.555	0.481	0.257	0.501	0.646	0.578	0.567	0.485	0.468	0.469	0.498	0.496	0.449	0.679	0.69	0.671	0.665	0.509
SK-LU-1	0.329	0.365	0.359	0.327	0.371		0.857	0.519	0.481	0.529	0.969	0.978	1.02	0.963	0.953	0.734	0.86	0.856	0.836	0.823
SK-MES-1	0.591	0.637	0.488	0.642	0.226	0.357	0.391	0.335	0.386	0.322	0.917	0.946	0.934	0.868	0.534	1.03	1.11	1.01	0.97	0.585
SW 1573	0.722	0.535	0.531	0.62	0.303	0.483	0.573	0.543	0.411	0.449	0.786	0.96	0.82	0.84	0.598	0.743	0.868	0.676	0.868	0.77
